Experimental findings from patent US9751869B2, “LXR modulators” (BRISTOL-MYERS SQUIBB COMPANY, priority 2013, dated 2017) are described below.

In the assay the target is T1, LXRβ (Homo sapiens, UniProt P55055).
T1 construct: Co-transfection expression plasmids, comprising full-length LXRα (pCMX-h LXRα or LXRβ (pCMX-hLXRβ)); expressed in transfected cells; host or cells: CV-1 African green monkey kidney cells, transient transfection with pCMX-hLXRβ
T1 sequence (P55055 1-460): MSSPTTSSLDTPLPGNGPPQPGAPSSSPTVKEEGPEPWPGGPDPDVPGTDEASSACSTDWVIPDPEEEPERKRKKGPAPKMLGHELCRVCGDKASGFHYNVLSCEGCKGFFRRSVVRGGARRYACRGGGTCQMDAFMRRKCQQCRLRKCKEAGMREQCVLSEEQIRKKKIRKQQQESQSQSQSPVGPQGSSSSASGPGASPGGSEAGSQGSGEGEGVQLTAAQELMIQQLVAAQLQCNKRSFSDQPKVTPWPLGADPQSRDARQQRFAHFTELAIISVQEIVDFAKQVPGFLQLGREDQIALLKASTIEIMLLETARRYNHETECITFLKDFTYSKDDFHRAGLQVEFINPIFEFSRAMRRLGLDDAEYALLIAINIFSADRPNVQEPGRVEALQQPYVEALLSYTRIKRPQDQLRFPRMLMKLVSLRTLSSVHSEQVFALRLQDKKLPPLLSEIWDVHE
T1 sequence (P19793 1-462 partner): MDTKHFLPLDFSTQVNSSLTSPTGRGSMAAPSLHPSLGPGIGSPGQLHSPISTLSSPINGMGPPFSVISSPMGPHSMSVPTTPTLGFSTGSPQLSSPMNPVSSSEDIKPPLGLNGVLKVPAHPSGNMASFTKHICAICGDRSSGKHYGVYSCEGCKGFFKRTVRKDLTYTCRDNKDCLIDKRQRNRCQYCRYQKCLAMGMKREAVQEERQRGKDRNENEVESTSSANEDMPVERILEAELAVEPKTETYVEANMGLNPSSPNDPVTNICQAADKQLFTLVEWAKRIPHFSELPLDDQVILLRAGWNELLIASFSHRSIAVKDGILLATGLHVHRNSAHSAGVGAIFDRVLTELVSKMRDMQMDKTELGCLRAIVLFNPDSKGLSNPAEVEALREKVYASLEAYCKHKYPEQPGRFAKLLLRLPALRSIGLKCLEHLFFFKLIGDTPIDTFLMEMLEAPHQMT
As to the kind of experiment: LXR/LXRE co-transfection assay (luciferase reporter) in CV-1 cells, LXRβ. Conditions: for EC50: CV-1 cells transfected with pCMX-hLXRβ and LXREx1-Tk-Luciferase, 20 hours incubation, read-out: LXRbeta agonism EC50; for Emax: CV-1 cells, relative to maximum response of high control N-(3-((4-fluorophenyl)-(naphthalene-2-sulfonyl)amino)propyl)-2,2-dimethylpropionamide, read-out: LXRbeta % EFFICACY
The assay is classed as cell-based. From the text: To measure the ability of compounds to activate or inhibit the transcriptional activity of LXR in a cell based assay, the co-transfection assay was used. It has been shown that LXR functions as a heterodimer with RXR. For the co-transfection assay, expression plasmids for LXRα and LXRβ are introduced separately via transient transfection into mammalian cells along with a luciferase reporter plasmid that contains one copy of a DNA sequence that is bound by LXR-RXR heterodimers (LXRE; Willy, P. et. al. 1995). LXRs heterodimerize with the endogenous RXR. Treatment of transfected cells with an LXR agonist increases the transcriptional activity of LXR, which is measured by an increase in luciferase activity.
Co-transfection expression plasmids, comprising full-length LXRα (pCMX-h LXRα or LXRβ (pCMX-hLXRβ), reporter plasmid (LXREx1-Tk-Luciferase), and control (pCMX-Galactosidase expression vector) (Willey et al. Genes & Development 9 1033-1045 (1995)).
CV-1 cells were prepared 24 hours prior to the experiment by plating them into T-175 flasks or 500 cm^2 dishes in order to achieve 70-80% confluency on the day of the transfection. The number of cells to be transfected was determined by the number of plates to be screened. Each well of a 384 well plate requires 1.5×10^4 cells. DNA Transfection Reagent was prepared by mixing the required plasmid DNAs with a cationic lipid transfection reagent Transit 2020 (Mirus Bio) for CV1 by following the instructions provided with the reagents. Optimal DNA amounts were determined empirically per cell line and size of vessel to be transfected. For each T175 cm^2 flask a total of 44.4 ug for CV1 of DNA, 133 ul Transit2020 and 4.5 ml DMEM for CV1 was mixed and added. Cells were then incubated at least 5 hours at 37° C. to prepare screening cells.
Assay plates were prepared by dispensing 5 μL of compound per well of a 384 well plate to achieve final compound concentration of 10 μM and no more than 0.5% DMSO. Media was removed from the screening cells, the cells trypsinized, harvested cells by centrifugation, counted, and plated at a density of approximately 1.5×10^4 cells in the 384 well assay plate prepared above in a volume of about 95 uL. Assay plates containing both compounds and screening cells (100 μL in total volume) were incubated for 20 hours at 37° C.
After incubation with compounds, media was removed from the cells and luciferase assay reagent (30 μL/well) added. After ˜2 minutes at ambient temperature, the assay plates were read on a luminometer (PE Biosystems Northstar reader with on-board injectors, or Envision (Perkin Elmer) or equivalent).
The LXR/LXRE co-transfection assay can be used to establish the EC50/IC50 values for potency and percent activity or inhibition for efficacy. Efficacy defines the activity of a compound relative to a high control ((N-(3-((4-fluorophenyl)-(naphthalene-2-sulfonyl)amino)propyl)-2,2-dimethylpropionamide)) or a low control (DMSO/vehicle). The dose response curves are generated from a 10 point curve with concentrations differing by ½ LOG units. Each point represents the average of 4 wells of data from a 384 well plate.
The data from this assay is fitted to the following equation, from which the EC50 value may be solved: Y=Bottom+(Top−Bottom)/(1+10^((log EC50-X)*HillSlope)).
The EC50/IC50 is therefore defined as the concentration at which an agonist or antagonist elicits a response that is halfway between the Top (maximum) and Bottom (baseline) values. The EC50/IC50 values represented are the averages of at least 2 and normally 3 independent experiments. The determination of the relative efficacy or % control for an agonist is by comparison to the maximum response achieved by ((N-(3-((4-fluorophenyl)-(naphthalene-2-sulfonyl)-amino)propyl)-2,2-dimethylpropionamide) that is measured individually in each dose response experiment.
Table 1 lists LXRβ EC50 values and % efficacy measurements in the cotransfection assay for examples of this invention.

For the compound `Cn1nc(C(F)F)cc1-c1ccc(-c2cccc(S(C)(=O)=O)c2)cc1-n1nncc1-c1ccc(OC(F)(F)F)cc1` [Example 22, 1-{4-[3-(difluoromethyl)-1-methyl-1H-pyrazol-5-yl]-3′-(methylsulfonyl)biphenyl-3-yl}-5-{4-[(trifluoromethyl)oxy]phenyl}-1H-1,2,3-triazole], the EC50 amounted to 0.126 µM and the Emax stood at 80%.

Turning to `Cn1nc(C(F)F)cc1-c1ccc(-c2cc(F)c(CO)c(S(C)(=O)=O)c2)cc1-n1nncc1-c1ccc(OC(F)(F)F)cc1` [Example 23, {4′-[3-(difluoromethyl)-1-methyl-1H-pyrazol-5-yl]-3-fluoro-5-(methylsulfonyl)-3′-(5-{4-[(trifluoromethyl)oxy]phenyl}-1H-1,2,3-triazol-1-yl)biphenyl-4-yl}methanol], the EC50 is 0.042 µM and the Emax was determined as 79%.

`Cn1nc(C(F)(F)CO)cc1-c1ccc(-c2cccc(S(C)(=O)=O)c2)cc1-n1nncc1-c1ccc(Cl)cc1` [Example 24, 2-(5-(3-(5-(4-chlorophenyl)-1H-1,2,3-triazol-1-yl)-3′-(methylsulfonyl)-[1,1′-biphenyl]-4-yl)-1-methyl-1H-pyrazol-3-yl)-2,2-difluoroethanol]: the EC50 was 1.38 µM and the Emax worked out at 48%.

`Cn1nc(C(F)(F)CO)cc1-c1ccc(-c2cccc(S(C)(=O)=O)c2)cc1-n1nncc1-c1ccc(OC(F)(F)F)cc1` [Example 25, 2,2-difluoro-2-(1-methyl-5-(3′-(methylsulfonyl)-3-(5-(4-(trifluoromethoxy)phenyl)-1H-1,2,3-triazol-1-yl)-[1,1′-biphenyl]-4-yl)-1H-pyrazol-3-yl)ethanol]: the EC50 turned out to be 1.02 µM and the Emax turned out to be 78%.

`Cn1nc(C(F)(F)CO)cc1-c1ccc(-c2cc(F)c(CO)c(S(C)(=O)=O)c2)cc1-n1nncc1-c1ccc(OC(F)(F)F)cc1` [Example 26, 2,2-difluoro-2-(5-(3′-fluoro-4′-(hydroxymethyl)-5′-(methylsulfonyl)-3-(5-(4-(trifluoromethoxy)phenyl)-1H-1,2,3-triazol-1-yl)-[1,1′-biphenyl]-4-yl)-1-methyl-1H-pyrazol-3-yl)ethanol]: the EC50 was 0.903 µM and the Emax amounted to 81%.

As to `Cn1nc(C(F)(F)C(=O)NC(C)(C)CO)cc1-c1ccc(-c2cc(F)c(CO)c(S(C)(=O)=O)c2)cc1-n1nncc1-c1ccc(OC(F)(F)F)cc1` [Example 27, 2,2-difluoro-2-(5-(3′-fluoro-4′-(hydroxymethyl)-5′-(methylsulfonyl)-3-(5-(4-(trifluoromethoxy)phenyl)-1H-1,2,3-triazol-1-yl)-[1,1′-biphenyl]-4-yl)-1-methyl-1H-pyrazol-3-yl)-N-(1-hydroxy-2-methylpropan-2-yl)acetamide], the EC50 was 1.57 µM and the Emax is 111%.

On to `Cn1nc(C(F)(F)C(=O)NC(C)(C)CO)cc1-c1ccc(-c2cccc(S(C)(=O)=O)c2)cc1-n1nncc1-c1ccc(OC(F)(F)F)cc1` [Example 28, 2,2-difluoro-N-(1-hydroxy-2-methylpropan-2-yl)-2-(1-methyl-5-(3′-(methylsulfonyl)-3-(5-(4-(trifluoromethoxy)phenyl)-1H-1,2,3-triazol-1-yl)-[1,1′-biphenyl]-4-yl)-1H-pyrazol-3-yl)acetamide], for which the EC50 amounted to 0.501 µM and the Emax worked out at 107%.

As to `Cn1nc(C(F)(F)CNCCO)cc1-c1ccc(-c2cccc(S(C)(=O)=O)c2)cc1-n1nncc1-c1ccc(OC(F)(F)F)cc1` [Example 29, 2-((2,2-difluoro-2-(1-methyl-5-(3′-(methylsulfonyl)-3-(5-(4-(trifluoromethoxy)phenyl)-1H-1,2,3-triazol-1-yl)-[1,1′-biphenyl]-4-yl)-1H-pyrazol-3-yl)ethyl)amino)ethanol], the EC50 was found to be 1.23 µM and the Emax turned out to be 80%.

For the compound `Cn1nc(C(F)(F)C#N)cc1-c1ccc(-c2cccc(S(C)(=O)=O)c2)cc1-n1nncc1-c1ccc(OC(F)(F)F)cc1` [Example 30, 2,2-difluoro-2-(1-methyl-5-(3′-(methylsulfonyl)-3-(5-(4-(trifluoromethoxy)phenyl)-1H-1,2,3-triazol-1-yl)-[1,1′-biphenyl]-4-yl)-1H-pyrazol-3-yl)acetonitrile], the EC50 was determined as 1.09 µM and the Emax is 15%.

As to `Cn1nc(C(F)(F)C(C)(C)O)cc1-c1ccc(-c2cccc(S(C)(=O)=O)c2)cc1-n1nncc1-c1ccc(Cl)cc1` [Example 31, 1-(5-(3-(5-(4-chlorophenyl)-1H-1,2,3-triazol-1-yl)-3′-(methylsulfonyl)-[1,1′-biphenyl]-4-yl)-1-methyl-1H-pyrazol-3-yl)-1,1-difluoro-2-methylpropan-2-ol], the EC50 came to 0.568 µM and the Emax is 50%.

On to `Cn1nc(C(F)(F)C(N)=O)cc1-c1ccc(-c2cccc(S(C)(=O)=O)c2)cc1-n1nncc1-c1ccc(Cl)cc1Cl` [Example 32, 2-(5-(3-(5-(2,4-dichlorophenyl)-1H-1,2,3-triazol-1-yl)-3′-(methylsulfonyl)-[1,1′-biphenyl]-4-yl)-1-methyl-1H-pyrazol-3-yl)-2,2-difluoroacetamide], for which the EC50 stood at 1.76 µM and the Emax worked out at 43%.

Turning to `Cn1nc(C(F)(F)C(C)(C)O)cc1-c1ccc(-c2cccc(S(C)(=O)=O)c2)cc1-n1nncc1-c1ccc2c(c1)OC(F)(F)O2` [Example 33, 1-(5-(3-(5-(2,2-difluorobenzo[d][1,3]dioxol-5-yl)-1H-1,2,3-triazol-1-yl)-3′-(methylsulfonyl)-[1,1′-biphenyl]-4-yl)-1-methyl-1H-pyrazol-3-yl)-1,1-difluoro-2-methylpropan-2-ol], the EC50 came to 1.43 µM and the Emax amounted to 66%.

One may read the EC50 as the midpoint of the concentration-response curve.
